Measured values reported in US10174035B2, “6-morpholinyl-2-pyrazolyl-9H-purine derivatives and their use as PI3K inhibitors” (Daiichi Sankyo Company, Limited, priority 2015, dated 2019).
Values belong to the molecule of their own block, whether it stands above or below them.

Columns and labels:
[1] = system: IFN-γ release in mouse splenocytes; assay: Phytohaemagglutinin (PHA)-induced interferon (IFN)-gamma release in mouse splenocytes; set-up: species or system C57BL/6 mouse; conditions: Splenocyte, PHA (10 μg/ml) for 48 hours, IFN-γ by ELISA, read-out: Cell Based IC50
Description: Effect of compounds on mitogen-induced IFN-γ release in mouse splenocytes was used to evaluate their potency in cell-based assay system [Blood (2010) 115: 2203-2213; Current Protocols in Immunology (2004) 3.12.1-3.12.20].
Mouse splenocytes were obtained from the spleen of a C57BL/6 mouse and plated at a density of 0.25 million cells/well in a 96 well tissue culture plate. The effect of the compounds to inhibit IFN-γ release was evaluated by treating the splenocytes with various concentrations of the test compounds followed by stimulation with PHA (10 μg/ml) for 48 hours. The IFN-γ release in the cell culture supernatant was quantified by ELISA as per the manufacturer's protocol (BD Biosciences, #555138).

PI3Kα = PI3Kα (Homo sapiens (Human), UniProt P42336); assay: In vitro enzyme assay (Kinase-Glo), selectivity, PI3Kα; format: biochemical; conditions: enzyme 2.29 μg/mL; ATP 10 μM; PIP2 60 μM; 2 hours
Description: (§1) The Kinase-Glo luminescent kinase assay kit (from Promega) was used to measure kinase activity. In this assay, amount of ATP remaining in solution following a kinase reaction is measured. The effect of compounds on PI3Kδ inhibition was carried out by adding 2.29 μg/ml of recombinant PI3K δ enzyme (Proteros, Germany) to reaction mixture containing assay buffer (50 mM HEPES, pH 7.4, 50 mM NaCl, 0.05% CHAPS) supplemented with 10 mM MgCl2, 5 mM DTT, 60 μM Phosphatidyl inositol bisphosphate (PIP2) and 10 μM ATP in the absence or presence of different concentrations of the compounds in a final volume of 15 μl/well, in a 384 well plate. The reaction mixture was incubated for 2 hours at room temperature. At the end of incubation period the equal volume of Kinase-Glo plus (Promega, V3772), was added per well and the luminescence was measured after incubating for 10 minutes at room temperature in dark. Results were calculated by measuring the luminescence units of test samples to blanks containing no enzyme.
(§2) The compounds of the present invention were tested for their selectivity for PI3Kδ over PI3Kα, PI3Kβ and PI3Kγ following the above assay using specific recombinant enzymes (Proteros, Germany) for each kinase. Assay condition of kinase assay (PI3Kα, PI3Kβ, PI3Kγ and PI3Kδ) was as follows. Enzyme: 2.29 μg/mL; ATP: 10 μM; PIP2 substrate: 60 μM and Reaction Time: 2 hours.

PI3Kβ = PI3Kβ (Homo sapiens (Human), UniProt P42338); assay: In vitro enzyme assay (Kinase-Glo), selectivity, PI3Kβ; format: biochemical; conditions: enzyme 2.29 μg/mL; ATP 10 μM; PIP2 60 μM; 2 hours
Description: as §1, §2

PI3Kγ = PI3Kγ (Homo sapiens (Human), UniProt P48736); assay: In vitro enzyme assay (Kinase-Glo), selectivity, PI3Kγ; format: biochemical; conditions: enzyme 2.29 μg/mL; ATP 10 μM; PIP2 60 μM; 2 hours
Description: The Kinase-Glo luminescent kinase assay kit (from Promega) was used to measure kinase activity. In this assay, amount of ATP remaining in solution following a kinase reaction is measured. […] The reaction mixture was incubated for 2 hours at room temperature. At the end of incubation period the equal volume of Kinase-Glo plus (Promega, V3772), was added per well and the luminescence was measured after incubating for 10 minutes at room temperature in dark. Results were calculated by measuring the luminescence units of test samples to blanks containing no enzyme.
The compounds of the present invention were tested for their selectivity for PI3Kδ over PI3Kα, PI3Kβ and PI3Kγ following the above assay using specific recombinant enzymes (Proteros, Germany) for each kinase. Assay condition of kinase assay (PI3Kα, PI3Kβ, PI3Kγ and PI3Kδ) was as follows.

[2] = biological target: recombinant PI3K δ enzyme (Homo sapiens (Human), UniProt O00329); assay: In vitro enzyme assay (Kinase-Glo luminescent kinase assay), PI3Kδ; format: biochemical
Outline: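 Each recombinant human PI3K isoform at 2.29 μg/mL with 60 μM PIP2 and 10 μM ATP in HEPES pH 7.4, NaCl, CHAPS, MgCl2, DTT, 2 hours at room temperature. Remaining ATP read by Kinase-Glo luminescence relative to no-enzyme blanks.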

Sequence of recombinant PI3K δ enzyme (O00329 whole entry, species assumed, canonical isoform): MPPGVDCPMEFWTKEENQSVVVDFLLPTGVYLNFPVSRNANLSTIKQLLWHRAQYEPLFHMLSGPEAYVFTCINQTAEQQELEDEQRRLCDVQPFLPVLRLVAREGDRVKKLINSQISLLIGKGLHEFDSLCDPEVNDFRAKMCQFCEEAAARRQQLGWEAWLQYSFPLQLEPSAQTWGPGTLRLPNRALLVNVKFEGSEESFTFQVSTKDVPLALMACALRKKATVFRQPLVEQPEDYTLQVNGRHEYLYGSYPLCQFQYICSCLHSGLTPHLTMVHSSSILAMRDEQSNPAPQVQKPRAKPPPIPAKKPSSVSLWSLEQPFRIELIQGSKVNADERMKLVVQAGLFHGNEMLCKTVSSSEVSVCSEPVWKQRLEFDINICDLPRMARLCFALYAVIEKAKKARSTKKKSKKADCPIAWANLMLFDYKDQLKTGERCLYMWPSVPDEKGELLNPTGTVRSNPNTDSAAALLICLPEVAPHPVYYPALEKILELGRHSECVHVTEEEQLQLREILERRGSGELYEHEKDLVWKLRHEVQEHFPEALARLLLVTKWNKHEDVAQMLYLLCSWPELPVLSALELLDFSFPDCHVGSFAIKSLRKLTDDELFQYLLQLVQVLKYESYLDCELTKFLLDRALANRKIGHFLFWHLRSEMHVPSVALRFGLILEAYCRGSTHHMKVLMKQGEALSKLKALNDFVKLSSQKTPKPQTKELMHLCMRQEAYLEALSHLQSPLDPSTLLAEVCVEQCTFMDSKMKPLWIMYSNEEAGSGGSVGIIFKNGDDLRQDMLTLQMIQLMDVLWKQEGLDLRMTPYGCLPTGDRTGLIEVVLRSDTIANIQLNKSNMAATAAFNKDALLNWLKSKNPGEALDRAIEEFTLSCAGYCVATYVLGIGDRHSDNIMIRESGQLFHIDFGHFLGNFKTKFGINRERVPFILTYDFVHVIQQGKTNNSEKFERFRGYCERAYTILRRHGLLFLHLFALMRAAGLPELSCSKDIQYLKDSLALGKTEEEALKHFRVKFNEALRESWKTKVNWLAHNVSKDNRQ
Sequence of recombinant PI3K δ enzyme (P27986 whole entry partner, species assumed, canonical isoform): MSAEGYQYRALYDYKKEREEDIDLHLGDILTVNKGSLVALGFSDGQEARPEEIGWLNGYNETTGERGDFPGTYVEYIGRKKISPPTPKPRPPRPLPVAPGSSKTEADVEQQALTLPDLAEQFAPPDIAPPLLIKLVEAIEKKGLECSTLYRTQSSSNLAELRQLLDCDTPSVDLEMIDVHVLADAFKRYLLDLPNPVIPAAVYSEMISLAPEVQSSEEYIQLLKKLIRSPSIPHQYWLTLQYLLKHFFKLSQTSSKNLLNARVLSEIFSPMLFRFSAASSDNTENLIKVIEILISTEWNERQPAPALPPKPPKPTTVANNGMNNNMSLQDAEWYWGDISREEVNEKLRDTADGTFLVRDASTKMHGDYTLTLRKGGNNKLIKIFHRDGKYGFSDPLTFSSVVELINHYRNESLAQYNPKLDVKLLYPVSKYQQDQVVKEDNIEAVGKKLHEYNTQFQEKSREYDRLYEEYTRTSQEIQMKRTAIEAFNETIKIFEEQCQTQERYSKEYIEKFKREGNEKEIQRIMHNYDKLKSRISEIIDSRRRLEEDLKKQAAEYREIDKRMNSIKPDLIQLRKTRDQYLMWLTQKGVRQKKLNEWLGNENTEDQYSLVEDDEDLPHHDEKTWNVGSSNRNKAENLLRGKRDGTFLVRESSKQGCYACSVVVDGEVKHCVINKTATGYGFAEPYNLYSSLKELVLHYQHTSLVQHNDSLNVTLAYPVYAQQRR
Sequence of PI3Kα (P42336 whole entry, species assumed): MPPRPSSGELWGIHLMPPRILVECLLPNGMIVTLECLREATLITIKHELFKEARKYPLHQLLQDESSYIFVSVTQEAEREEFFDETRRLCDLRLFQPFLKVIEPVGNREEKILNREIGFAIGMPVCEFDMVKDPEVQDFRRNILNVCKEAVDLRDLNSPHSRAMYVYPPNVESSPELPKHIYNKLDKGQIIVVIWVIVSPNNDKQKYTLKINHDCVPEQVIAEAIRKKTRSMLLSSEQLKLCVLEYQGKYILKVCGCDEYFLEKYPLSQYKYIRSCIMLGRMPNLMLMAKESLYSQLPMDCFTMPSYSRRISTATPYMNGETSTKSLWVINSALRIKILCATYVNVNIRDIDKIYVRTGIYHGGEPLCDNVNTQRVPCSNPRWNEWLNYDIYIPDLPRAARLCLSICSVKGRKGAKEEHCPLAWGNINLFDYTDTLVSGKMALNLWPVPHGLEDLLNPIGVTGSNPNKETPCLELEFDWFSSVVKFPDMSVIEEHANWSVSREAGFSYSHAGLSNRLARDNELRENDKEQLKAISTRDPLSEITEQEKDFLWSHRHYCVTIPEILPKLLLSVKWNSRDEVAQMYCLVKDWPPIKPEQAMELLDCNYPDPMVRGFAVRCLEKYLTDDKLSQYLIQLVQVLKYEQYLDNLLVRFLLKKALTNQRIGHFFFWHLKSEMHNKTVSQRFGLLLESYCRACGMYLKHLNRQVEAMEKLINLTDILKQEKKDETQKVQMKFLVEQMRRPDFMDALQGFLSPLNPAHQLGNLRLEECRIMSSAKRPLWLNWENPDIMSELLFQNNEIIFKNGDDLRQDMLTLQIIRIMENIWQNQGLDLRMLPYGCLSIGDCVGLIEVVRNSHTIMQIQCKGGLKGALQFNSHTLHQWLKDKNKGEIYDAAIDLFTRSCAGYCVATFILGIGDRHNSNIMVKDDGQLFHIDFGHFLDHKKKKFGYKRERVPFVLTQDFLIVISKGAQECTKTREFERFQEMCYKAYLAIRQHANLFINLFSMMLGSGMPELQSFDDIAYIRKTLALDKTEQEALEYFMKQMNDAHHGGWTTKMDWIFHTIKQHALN
Sequence of PI3Kα (P27986 whole entry partner, species assumed): as the sequence (P27986 whole entry partner, species assumed, canonical isoform) above
Sequence of PI3Kβ (P42338 whole entry, species assumed): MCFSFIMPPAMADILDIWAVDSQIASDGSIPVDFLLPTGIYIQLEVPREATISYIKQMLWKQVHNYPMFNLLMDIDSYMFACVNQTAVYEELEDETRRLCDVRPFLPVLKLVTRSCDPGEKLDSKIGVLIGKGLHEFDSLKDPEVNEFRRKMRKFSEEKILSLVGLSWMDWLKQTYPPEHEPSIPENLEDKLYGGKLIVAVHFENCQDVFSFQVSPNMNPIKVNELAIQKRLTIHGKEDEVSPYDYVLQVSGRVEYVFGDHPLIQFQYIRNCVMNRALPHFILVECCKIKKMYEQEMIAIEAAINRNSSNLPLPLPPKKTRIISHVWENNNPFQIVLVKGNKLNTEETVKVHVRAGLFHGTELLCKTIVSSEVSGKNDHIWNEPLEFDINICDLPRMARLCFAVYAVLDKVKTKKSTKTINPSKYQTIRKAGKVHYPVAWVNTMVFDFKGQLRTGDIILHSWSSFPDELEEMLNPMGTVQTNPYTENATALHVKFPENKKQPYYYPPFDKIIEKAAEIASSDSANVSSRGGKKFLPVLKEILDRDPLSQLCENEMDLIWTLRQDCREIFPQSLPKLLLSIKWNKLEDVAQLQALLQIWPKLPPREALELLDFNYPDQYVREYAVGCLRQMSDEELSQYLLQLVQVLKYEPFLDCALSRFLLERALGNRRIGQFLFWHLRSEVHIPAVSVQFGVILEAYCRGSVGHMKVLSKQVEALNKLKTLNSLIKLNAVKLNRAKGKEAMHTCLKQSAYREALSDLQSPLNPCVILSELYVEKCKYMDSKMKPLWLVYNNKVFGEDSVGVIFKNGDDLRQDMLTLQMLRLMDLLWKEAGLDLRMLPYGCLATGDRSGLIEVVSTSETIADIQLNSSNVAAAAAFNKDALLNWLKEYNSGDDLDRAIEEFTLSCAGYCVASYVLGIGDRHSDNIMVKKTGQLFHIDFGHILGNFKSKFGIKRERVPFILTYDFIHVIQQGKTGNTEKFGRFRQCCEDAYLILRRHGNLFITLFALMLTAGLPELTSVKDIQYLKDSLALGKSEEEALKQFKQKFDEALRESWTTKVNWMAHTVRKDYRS
Sequence of PI3Kβ (P27986 whole entry partner, species assumed): as the sequence (P27986 whole entry partner, species assumed, canonical isoform) above
Sequence of PI3Kγ (P48736 whole entry, species assumed): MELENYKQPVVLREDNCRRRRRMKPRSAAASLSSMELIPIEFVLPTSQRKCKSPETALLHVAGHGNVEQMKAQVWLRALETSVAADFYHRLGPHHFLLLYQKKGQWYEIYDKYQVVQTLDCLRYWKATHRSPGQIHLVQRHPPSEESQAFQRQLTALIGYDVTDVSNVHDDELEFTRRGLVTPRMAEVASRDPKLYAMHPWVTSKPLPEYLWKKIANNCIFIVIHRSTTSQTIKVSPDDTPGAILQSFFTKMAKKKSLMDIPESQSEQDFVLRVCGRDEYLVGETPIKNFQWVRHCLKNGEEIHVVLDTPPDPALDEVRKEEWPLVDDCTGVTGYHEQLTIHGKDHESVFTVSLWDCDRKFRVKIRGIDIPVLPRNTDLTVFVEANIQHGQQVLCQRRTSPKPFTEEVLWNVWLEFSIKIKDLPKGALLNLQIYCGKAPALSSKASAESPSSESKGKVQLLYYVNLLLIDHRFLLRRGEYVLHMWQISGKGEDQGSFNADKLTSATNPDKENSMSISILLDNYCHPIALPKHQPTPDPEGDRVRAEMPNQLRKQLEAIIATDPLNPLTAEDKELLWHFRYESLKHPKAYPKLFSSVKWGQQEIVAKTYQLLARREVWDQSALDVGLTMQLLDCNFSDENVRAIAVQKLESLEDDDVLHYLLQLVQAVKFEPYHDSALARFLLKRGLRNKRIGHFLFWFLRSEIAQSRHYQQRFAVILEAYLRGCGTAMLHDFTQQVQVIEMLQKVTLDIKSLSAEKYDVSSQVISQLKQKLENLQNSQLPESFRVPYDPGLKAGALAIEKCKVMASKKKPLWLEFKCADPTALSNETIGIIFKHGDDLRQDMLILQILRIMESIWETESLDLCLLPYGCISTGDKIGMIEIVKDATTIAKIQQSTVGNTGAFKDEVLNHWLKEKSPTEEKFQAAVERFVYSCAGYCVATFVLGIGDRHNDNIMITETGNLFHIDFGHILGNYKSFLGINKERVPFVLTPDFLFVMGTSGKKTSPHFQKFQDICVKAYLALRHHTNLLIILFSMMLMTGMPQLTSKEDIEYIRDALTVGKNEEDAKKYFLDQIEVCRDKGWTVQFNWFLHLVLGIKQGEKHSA

SMILES: Cn1cc(-c2nc(N3CCOCC3)c3nc(C(=O)N4CCN(C(C)(C)C(N)=O)CC4)[nH]c3n2)cn1 [compound 10, 2-Methyl-2-(4-{[2-(1-methyl-1H-pyrazol-4-yl)-6-(morpholin-4-yl)-9H-purin-8-yl]carbonyl}piperazin-1-yl)propanamide]
IC50 [1]: 270 nM

SMILES: C[C@@H]1CN(C2CCN(C(=O)c3nc4c(N5CCOCC5)nc(-c5cn[nH]c5)nc4[nH]3)CC2)C[C@H](C)O1 [compound 65, {4-[cis-2,6-Dimethylmorpholin-4-yl]piperidin-1-yl}[6-(morpholin-4-yl)-2-(1H-pyrazol-4-yl)-9H-purin-8-yl]methanone]
IC50 (PI3Kα): 986 nM | IC50 (PI3Kβ): > 10000 nM | IC50 (PI3Kγ): 9770 nM | IC50 [1]: 79 nM

SMILES: Cn1cc(-c2nc3c(nc(C(=O)N4CCC(N5CCOCC5)CC4)n3C)c(N3CCOCC3)c2F)cn1 [compound 111, [6-Fluoro-3-methyl-5-(1-methyl-1-pyrazol-4-yl)-7-(morpholin-4-yl)-3H-imidazo[4,5-b]pyridin-2-yl][4-(morpholin-4-yl)piperidin-1-yl]methanone]
IC50 [2]: 184 nM

SMILES: Cc1nn(C)cc1-c1cc(N2CCOCC2)c2nc(C(=O)N3CCC(N4C[C@@H](C)O[C@@H](C)C4)CC3)[nH]c2n1 [compound 113, {4-[cis-2,6-Dimethylmorpholin-4-yl]piperidin-1-yl}[5-(1,3-dimethyl-1H-pyrazol-4-yl)-7-(morpholin-4-yl)-3H-imidazo[4,5-b]pyridin-2-yl]methanone]
IC50 (PI3Kα): > 1000 nM | IC50 (PI3Kβ): 1150 nM | IC50 (PI3Kγ): > 1000 nM | IC50 [1]: 7 nM

SMILES: Cc1nn(C)cc1-c1cc(N2CCOCC2)c2nc(C(=O)N3CCC(N4C[C@@H](C)O[C@@H](C)C4)CC3)n(C)c2n1 [compound 114, {4-[cis-2,6-Dimethylmorpholin-4-yl]piperidin-1-yl}[5-(1,3-dimethyl-1H-pyrazol-4-yl)-3-methyl-7-(morpholin-4-yl)-3H-imidazo[4,5-b]pyridin-2-yl]methanone]
IC50 [2]: 72 nM

SMILES: Cn1cc(-c2cc(N3CCOCC3)c3nc(C(=O)NCCCN4CCCC4=O)[nH]c3n2)cn1 [compound 116, 5-(1-Methyl-1H-pyrazol-4-yl)-7-(morpholin-4-yl)-N-[3-(2-oxopyrrolidin-1-yl)propyl]-3H-imidazo[4,5-b]pyridine-2-carboxamide]
IC50 [1]: 72 nM

SMILES: Cn1cc(-c2cc(N3CCOCC3)c3nc(C(=O)N4CCC(C(C)(C)O)CC4)[nH]c3n2)cn1 [compound 117, [4-(2-Hydroxypropan-2-yl)piperidin-1-yl][5-(1-methyl-1H-pyrazol-4-yl)-7-(morpholin-4-yl)-3H-imidazo[4,5-b]pyridin-2-yl]methanone]
IC50 [2]: 122 nM

SMILES: C[C@@H]1CN(C2CCN(C(=O)c3nc4c(N5CCOCC5)cc(-c5cn[nH]c5)nc4[nH]3)CC2)C[C@H](C)O1 [compound 118, {4-[cis-2,6-Dimethylmorpholin-4-yl]piperidin-1-yl}[7-(morpholin-4-yl)-5-(1H-pyrazol-4-yl)-3H-imidazo[4,5-b]pyridin-2-yl]methanone]
IC50 [2]: 50 nM

SMILES: O=C(c1nc2c(N3CCOCC3)c(F)c(-c3cn[nH]c3)nc2[nH]1)N1CCC(N2CCOCC2)CC1 [compound 125, [6-Fluoro-7-(morpholin-4-yl)-5-(1H-pyrazol-4-yl)-3H-imidazo[4,5-b]pyridin-2-yl][4-(morpholin-4-yl)piperidin-1-yl]methanone]
IC50 [2]: 43 nM

SMILES: Cn1cc(-c2nc3[nH]c(C(=O)N4CC(N5CCOCC5)C4)nc3c(N3CCOCC3)c2F)cn1 [compound 126, [6-Fluoro-5-(1-methyl-1H-pyrazol-4-yl)-7-(morpholin-4-yl)-3H-imidazo[4,5-b]pyridin-2-yl][3-(morpholin-4-yl)azetidin-1-yl]methanone]
IC50 [2]: 25 nM

SMILES: C[C@@H]1CN(C2CN(C(=O)c3nc4c(N5CCOCC5)c(F)c(-c5cnn(C)c5)nc4[nH]3)C2)C[C@H](C)O1 [compound 127, {3-[(2R,6S)-2,6-dimethylmorpholin-4-yl]azetidin-1-yl}[6-fluoro-5-(1-methyl-1H-pyrazol-4-yl)-7-(morpholin-4-yl)-3H-imidazo[4,5-b]pyridin-2-yl]methanone]
IC50 [2]: 36 nM

SMILES: CN(C(=O)c1nc2c(N3CCOCC3)nc(-c3cnn(C)c3)nc2[nH]1)C1CCN(C2COC2)CC1 [compound 132, N-Methyl-2-(1-methyl-1H-pyrazol-4-yl)-6-(morpholin-4-yl)-N-[1-(oxetan-3-yl)piperidin-4-yl]-9H-purine-8-carboxamide]
IC50 [2]: 240 nM

Continued by falling IC50 [2], values first:

IC50 [2]: 20 nM
SMILES: Cn1cc(-c2nc(N3CCOCC3)c3nc(C(=O)N4CCC5(CC4)CNC(=O)C5)[nH]c3n2)cn1 [compound 122, 8-{[2-(1-Methyl-1H-pyrazol-4-yl)-6-(morpholin-4-yl)-9H-purin-8-yl]carbonyl}-2,8-diazaspiro[4.5]decan-3-one]

IC50 [2]: 19 nM
SMILES: O=C(c1nc2c(N3CCOCC3)cc(-c3cn[nH]c3)nc2[nH]1)N1CCC(N2CCOCC2)CC1 [compound 133, [4-(Morpholin-4-yl)piperidin-1-yl][7-(morpholin-4-yl)-5-(1H-pyrazol-4-yl)-3H-imidazo[4,5-b]pyridin-2-yl]methanone]

IC50 [2]: 19 nM
SMILES: Cn1cc(-c2cc(N3CCOCC3)c3nc(C(=O)N4CCN(C5CCOCC5)CC4)[nH]c3n2)cn1 [compound 135, [5-(1-Methyl-1H-pyrazol-4-yl)-7-(morpholin-4-yl)-3H-imidazo[4,5-b]pyridin-2-yl][4-(tetrahydro-2H-pyran-4-yl)piperazin-1-yl]methanone]

IC50 [2]: 17 nM
SMILES: Cn1cc(-c2nc3[nH]c(C(=O)NCCCN4CCOCC4)nc3c(N3CCOCC3)c2F)cn1 [compound 124, 6-Fluoro-5-(1-methyl-1H-pyrazol-4-yl)-7-(morpholin-4-yl)-N-[3-(morpholin-4-yl)propyl]-3H-imidazo[4,5-b]pyridine-2-carboxamide]

IC50 [2]: 16 nM
SMILES: Cn1cc(-c2cc(N3CCOCC3)c3nc(C(=O)NCCCN4CCOCC4)[nH]c3n2)cn1 [compound 115, 5-(1-Methyl-1H-pyrazol-4-yl)-7-(morpholin-4-yl)-N-[3-(morpholin-4-yl)propyl]-3H-imidazo[4,5-b]pyridine-2-carboxamide]

IC50 [2]: 15 nM
SMILES: Cc1nn(C)cc1-c1nc2c(nc(C(=O)N3CCC(N4C[C@@H](C)O[C@@H](C)C4)CC3)n2C)c(N2CCOCC2)c1F [compound 112, {4-[cis-2,6-Dimethylmorpholin-4-yl]piperidin-1-yl}[5-(1,3-dimethyl-1H-pyrazol-4-yl)-6-fluoro-3-methyl-7-(morpholin-4-yl)-3H-imidazo[4,5-b]pyridin-2-yl]methanone]

IC50 [2]: 10 nM
SMILES: Cn1cc(-c2cc(N3CCOCC3)c3nc(C(=O)N4CC(N5CCOCC5)C4)[nH]c3n2)cn1 [compound 120, [5-(1-Methyl-1H-pyrazol-4-yl)-7-(morpholin-4-yl)-3H-imidazo[4,5-b]pyridin-2-yl][3-(morpholin-4-yl)azetidin-1-yl]methanone]

IC50 [2]: 4 nM
SMILES: O=C(c1nc2c(N3CCOCC3)c(F)c(-c3c[nH]nc3C(F)(F)F)nc2[nH]1)N1CCC(N2CCOCC2)CC1 [compound 123, {6-Fluoro-7-(morpholin-4-yl)-5-[3-(trifluoromethyl)-1H-pyrazol-4-yl]-3H-imidazo[4,5-b]pyridin-2-yl}[4-(morpholin-4-yl)piperidin-1-yl]methanone]

IC50 [2]: 3 nM
SMILES: O=C(c1nc2c(N3CCOCC3)cc(-c3c[nH]nc3C(F)(F)F)nc2[nH]1)N1CCC(N2CCOCC2)CC1 [compound 134, [4-(Morpholin-4-yl)piperidin-1-yl]{7-(morpholin-4-yl)-5-[3-(trifluoromethyl)-1H-pyrazol-4-yl]-3H-imidazo[4,5-b]pyridin-2-yl}methanone]
